PMC7369637, “Inhibition of Resistance-Refractory P. falciparum Kinase PKG Delivers Prophylactic, Blood Stage, and Transmission-Blocking Antiplasmodial Activity” (Cell Chemical Biology, 2020)

Tested on: metabolite levels in Pf trophozoites and schizonts
Assay: Metabolomics (UHPLC-MS) of treated trophozoites and schizonts
Assay type: cell-based, Plasmodium falciparum
Conditions: trophozoites
Experimental: Metabolomics experiments were performed as described elsewhere ([Murithi et al., 2019]). […] Following several washes, metabolites were extracted by 90% methanol containing 0.5 μM ^13C^15N-labelled aspartate as an internal standard. Nitrogen-dried samples were stored at -80°C. Samples were resuspended in high-performance liquid chromatography (HPLC) grade water that contained 1 μM chlorpropamide as an internal standard. They were then analyzed by ultra-high-performance liquid chromatography mass spectrometry UHPLC-MS ([Allman et al., 2016]). Data analysis was performed using the el-MAVEN software and the Metaboanalyst package in R Studio ([Murithi et al., 2019]).

## O=C1C(O)=C([C@H]2CC[C@H](c3ccc(Cl)cc3)CC2)C(=O)c2ccccc21 [ATQ, Atovaquone]
  Log2 fold change in 2-Hydroxy-2-methylbutanedioic acid level: -0.127
  Log2 fold change in 2_3-Diphosphoglyceric acid level: -0.381
  Log2 fold change in 3-phosphoglycerate level: -0.429
  Log2 fold change in 4-aminobutyrate level: 0.101
  Log2 fold change in 4-phosphopantothenate level: -0.459
  Log2 fold change in 6-phospho-D-gluconate level: -0.286
  Log2 fold change in ADP-D-glucose level: -0.046
  Log2 fold change in CDP level: -0.509
  Log2 fold change in CMP level: -0.007
  Log2 fold change in D-glucosamine-1/6-phosphate level: -0.044
  Log2 fold change in D-sedoheptulose-1/7-phosphate level: -0.528
  Log2 fold change in DL-Pipecolic Acid level: -0.217
  Log2 fold change in DLH level: 0.019
  Log2 fold change in DLS level: -0.123
  Log2 fold change in FAD level: -0.090
  Log2 fold change in FMN level: -0.124
  Log2 fold change in GDP level: 0.014
  Log2 fold change in GMP level: 0.614
  Log2 fold change in HVDD level: 0.032
  Log2 fold change in Hexose level: -0.376
  Log2 fold change in IMP level: 0.044
  Log2 fold change in N-Acetyl-L-alanine level: -0.316
  Log2 fold change in N-acetyl-L-ornithine level: 0.096
  Log2 fold change in N-acetyl-glutamate level: -0.170
  Log2 fold change in N-acetyl-glutamine level: -0.082
  Log2 fold change in N-carbamoyl-L-aspartate level: 3.058
  Log2 fold change in NAD+ level: -0.186
  Log2 fold change in NADP+ level: -0.065
  Log2 fold change in NADPH level: -0.700
  Log2 fold change in Octulose 8/1P level: -0.033
  Log2 fold change in Octulose Bisphosphate level: -0.267
  Log2 fold change in PD level: 0.177
  Log2 fold change in PE level: 0.343
  Log2 fold change in PEE level: -0.149
  Log2 fold change in PEEK level: 0.046
  Log2 fold change in PVNF level: -0.949
  Log2 fold change in Pyroglutamic acid level: -0.555
  Log2 fold change in Ribose-5-phosphate level: -0.276
  Log2 fold change in S-adenosyl-L-homocysteine level: -0.313
  Log2 fold change in Sedoheptulose bisphosphate level: -0.304
  Log2 fold change in UDP level: -0.826
  Log2 fold change in UDP-D-glucose level: -0.168
  Log2 fold change in UDP-D-glucuronate level: -0.164
  Log2 fold change in UDP-N-acetyl-glucosamine level: -0.499
  Log2 fold change in UMP level: -0.377
  Log2 fold change in a-ketoglutarate level: -0.00422
  Log2 fold change in acetyl-CoA level: -0.783
  Log2 fold change in acetyl-aspartate level: -0.358
  Log2 fold change in alanine/sarcosine level: -0.389
  Log2 fold change in arginine level: -0.197
  Log2 fold change in asparagine level: -0.111
  Log2 fold change in aspartate level: -0.858
  Log2 fold change in coenzyme A level: -0.813
  Log2 fold change in cyclic-AMP level: -0.306
  Log2 fold change in cytidine level: -0.308
  Log2 fold change in dCDP level: 0.078
  Log2 fold change in dCMP level: 0.286
  Log2 fold change in dCTP level: -0.396
  Log2 fold change in dGDP/ADP level: -0.020
  Log2 fold change in dGMP/AMP level: 0.757
  Log2 fold change in dTDP level: -0.522
  Log2 fold change in dTMP level: 0.797
  Log2 fold change in dTTP level: -1.044
  Log2 fold change in dihydroorotate level: 4.182
  Log2 fold change in folate level: -0.409
  Log2 fold change in fructose-1-6-bisphosphate level: -0.330
  Log2 fold change in fructose-6-phosphate level: -0.341
  Log2 fold change in fumarate level: -0.377
  Log2 fold change in glutamate level: 0.025
  Log2 fold change in glutamine level: -0.211
  Log2 fold change in glutathione disulfide level: -0.238
  Log2 fold change in glutathione level: -0.129
  Log2 fold change in guanosine level: -0.368
  Log2 fold change in histidine level: -0.281
  Log2 fold change in hydroxyproline/Aminolevulinate level: -0.316
  Log2 fold change in hypoxanthine level: -0.322
  Log2 fold change in inosine level: -0.490
  Log2 fold change in isoleucine level: -0.515
  Log2 fold change in lysine level: 0.274
  Log2 fold change in malate level: -0.381
  Log2 fold change in maleic acid level: -0.226
  Log2 fold change in methionine level: -0.384
  Log2 fold change in nicotinate level: -0.467
  Log2 fold change in orotate level: 0.364
  Log2 fold change in pantothenate level: -0.383
  Log2 fold change in phenylalanine level: -0.490
  Log2 fold change in phosphoenolpyruvate level: -0.226
  Log2 fold change in proline level: -0.424
  Log2 fold change in pyruvate level: -0.797
  Log2 fold change in ribose level: -0.358
  Log2 fold change in ribose-phosphate level: -0.355
  Log2 fold change in ribulose-5-phosphate level: -0.161
  Log2 fold change in serine level: -0.067
  Log2 fold change in sn-glycerol-3-phosphate level: 0.064
  Log2 fold change in succinate/Methylmalonic acid level: -0.878
  Log2 fold change in thiamine level: -0.352
  Log2 fold change in threonine/homoserine level: -0.156
  Log2 fold change in tryptophan level: -0.225
  Log2 fold change in tyrosine level: -0.394
  Log2 fold change in xanthosine level: -0.306
  Log2 fold change in xanthosine-5-phosphate level: -0.737
